Results on 1 molecule are retold here after patent US20230339877A1, “Synthesis and Composition of Neurolenin D Mesylate and Related Compounds - New Drugs for the Treatment of Parasitic Nematode Infections in Humans, Animals and Plants” (Smith College, priority 2022, published 2023).

Data set [1] relates to microfilariae (larvae). The data set can be described thus: Killing of microfilariae (larvae) produced following mating of adult parasites. The format is cell-based, Brugia pahangi. The settings on record: repeated experiments. The source says:
100% of all adult male and female parasites are always killed upon treatment with NDM.

Data set [2] deals with adult female Brugia pahangi parasites (BP AF). The data set is described as follows: Killing of adult female Brugia pahangi parasites (BP AF) in culture. The data set is classed as cell-based. As for the experimental part: The drug was applied at 1, 2 and 3 parts per million (ppm) and was 100% effective at killing the parasites at all three concentrations. Even at 1 ppm, all parasites were killed within 90 hours after treatment. The control treatment is with 1, 2 and 3 ppm ethanol given to the parasites in culture under the same conditions. One adult female parasite treated with 1 ppm ethanol died at about 80 hours. This death is not experimentally significant as occasionally a parasite dies in culture without any drug treatment.

For data set [3], the system named is adult male Brugia pahangi parasites (BP AM). The data set can be described thus: Killing of adult male Brugia pahangi parasites (BP AM) in culture. The data set is classed as cell-based. As for the experimental part:
The drug was applied at 1, 2 and 3 parts per million (ppm) and was 100% effective at killing the parasites at all three concentrations. Even at 1 ppm, all parasites were killed within 120 hours after treatment. The control treatment is with 1, 2 and 3 ppm ethanol given to the parasites in culture under the same conditions. One adult male parasite treated with 1 ppm ethanol died at about 40 hours. This death is not experimentally significant as occasionally a parasite dies in culture without any drug treatment.

A short description of data set [4]: Biological activity assays for toxicity and mutagenicity. The settings on record: preliminary data.
Setting [5] is: repeated in many separate trials.

Counter-ions that a name gives are not always drawn.

Turning to `C=C1C(=O)O[C@@H]2C[C@H](C)/C=C\C(=O)[C@](C)(O)[C@@H](OS(C)(=O)=O)[C@@H](OC(=O)CC(C)C)[C@@H]12` [NDM, Neurolenin D Mesylate], in data set [1], the “microfilariae (larvae) killed” value came out at 100%. For the same molecule, the “time after treatment by which all parasites were killed” value in data set [2] (adult female BP in culture, 1 ppm) is ≤ 90 h; in data set [3] (adult male BP in culture, 1 ppm), ≤ 120 h. Also, the “effective at killing the parasites” value in data set [2] (adult female BP in culture, drug applied at 1, 2 and 3 ppm, all three concentrations, FIG. 1) was 100%; in data set [3] (adult male BP in culture, drug applied at 1, 2 and 3 ppm, all three concentrations, FIG. 2) it was 100%. The “speed of killing compared with other neurolenin derivatives” value in data set [2] (adult female BP, FIG. 1, at the endpoint 100% of worms killed) is “more slowly”; in data set [3] (adult male BP, FIG. 2, at the endpoint 100% of worms killed), “more slowly”. In addition, the “adult female parasites killed upon treatment” value in data set [2] (setting [5]) is given as 100%. In addition, the “adult male parasites killed upon treatment” value in data set [3] (setting [5]) is 100%. Besides, the mutagenicity entry in data set [4] is reported as “not toxic or mutagenic”. The toxicity result in data set [4] is on record as “not toxic”.
